The values that follow come from patent EP0470794A1, “Process for the preparation of nitriles” (ZENECA LIMITED, priority 1990, dated 1992).

Each structure is given as a SMILES string.

For assay [1], the system named is AII-induced contractions of isolated rabbit aorta. Briefly: Test B: antagonism of AII-induced contractions of isolated aorta. Type of assay: cell-based. Conditions: Oryctolagus cuniculus, 37°C, average, read-out: average pA₂ (converted). Here is the method: In general, compounds of formula VI as defined above show significant inhibition in Test A at a concentration of 50 micromolar or much less. Test B: This in vitro test involves the measurement of the antagonistic effects of the test compound against AII-induced contractions of isolated rabbit aorta, maintained in a physiological salt solution at 37°C. In order to ensure that the effect of the compound is specific to antagonism of AII, the effect of the test compound on noradrenaline-induced contractions may also be determined in the same preparation.

For assay [2], the system named is angiotensin II-induced pressor responses. Briefly: Test C: antagonism of angiotensin II-induced pressor responses in vivo. The conditions noted are these: Rattus norvegicus, iv; i.v. administration; rats; read-out: ED₅₀. The protocol:
In general, compounds of formula VI as defined above show significant inhibition in Test B at a final concentration of 50 micromolar or much less. Test C: This in vivo test involves using terminally-anaesthetised or conscious rats in which an arterial catheter has been implanted under anaesthesia for the measurement of changes in blood pressure. The AII antagonistic effects of the test compound following oral or parenteral administration, are assessed against angiotensin II-induced pressor responses. To ensure that the effect is specific, the effect of the test compound on vasopressin-induced pressor responses may also be determined in the same preparation.

`Cc1cc(OCc2ccc(-c3ccccc3-c3nnn[nH]3)cc2)c2ccccc2n1.Cl` [2-methyl-4-[(2′-(1H-tetrazol-5-yl)biphenyl-4-yl)methoxy]quinoline hydrochloride]: the Kb in assay [1] was 1.12 nM. For the same compound, the ED50 in assay [2] is 0.5 mg/kg.
